Active and inactive are the calls of the source. No cut-off for these calls is given here.
Assays:
[1] = species: Homo sapiens; assay: Binding affinity to internal ribosome entry site A RNA G-quadruplex region of human VEGF-A 5'-UTR at 10 uM by PCR stop assay
[2] = test system: MCF7; assay: Cytotoxicity against human MCF7 cells assessed as reduction in cell viability; format: cell-based
[3] = Binding affinity to 5'- FAM-labeled wild type human internal ribosome entry site A RNA G-quadruplex after 5 mins by MST analysis
[4] = Binding affinity to RNA (unknown origin) at 1 uM after 24 hrs by spectrophotometric method
[5] = species: Homo sapiens; assay: Binding affinity to human 5'-UGAUGAGUGUGAGUAGUA-3' RNA at 1 uM after 24 hrs by spectrophotometric method
[6] = species: Homo sapiens; assay: Destabilization of human VEGF-A promoter DNA up to 5 uM by CD spectral analysis
[7] = species: Homo sapiens; assay: Destabilization of human wild type 5'-FAM labeled internal ribosome entry site A RNA G-quadruplex at 2.5 to 10 uM measured after 3 hrs by electrophoresis mobility shift assay
[8] = species: Homo sapiens; assay: Inhibition of BG4 antibody binding to biotin-labeled human wild type internal ribosome entry site A RNA G-quadruplex at 1.25 to 10 uM after 3 hrs by filter binding assay
[9] = species: Homo sapiens; assay: Inhibition of FLAG-labeled BG4 antibody binding to human wild type internal ribosome entry site A RNA G-quadruplex at 1.25 to 10 uM preincubated with RNA followed by antibody addition by pull-down assay
[10] = Inhibition of NT-647 dye-labeled BG4 binding to human wild type internal ribosome entry site A RNA G-quadruplex assessed as BG4 antibody Kd by MST analysis (reference value: 10.8 nM)
[11] = species: Homo sapiens; assay: Inhibition of BG4 protein binding to human wild type internal ribosome entry site A RNA G-quadruplex in MCF7 cells transfected with pcDNA3.1-BG4 plasmid at 2.5 to 5 uM after 24 hrs by RT-PCR analysis; format: cell-based
[12] = test system: MCF7; assay: Cytotoxicity against human MCF7 cells after 24 hrs relative to control; format: cell-based; settings: mcf7, 24 h
[13] = species: Homo sapiens; assay: Destabilization of human 5'-UGAAGAGUGUGAGUAGUA-3' RNA expressed in MCF7 cells assessed as down regulation of VEGF-A translation at up to 1.5 uM after 24 hrs by dual-luciferase reporter gene assay; format: cell-based
[14] = species: Homo sapiens; assay: Destabilization of human 5'-UGAUGAGUGUGAGUAGUA-3' RNA expressed in MCF7 cells assessed as down regulation of VEGF-A translation at 0.1875 to 1.5 uM after 24 hrs by dual-luciferase reporter gene assay; format: cell-based
[15] = species: Homo sapiens; assay: Destabilization of human wild type internal ribosome entry site A RNA G-quadruplex expressed in human MCF7 cells assessed as decrease in VEGF-A protein expression at 1.5 uM after 48 hrs by ELISA relative to control; format: cell-based; parameters: scale not given: the % may be the effect or the level left
[16] = test system: Mus musculus; assay: Downregulation of VEGF-A expression in tumor of Balb/c mouse xenografted with human MCF7 cells at 7.5 mg/kg, ip qd for 20 days by immunohistochemical analysis; format: functional, organism-based
[17] = species: Homo sapiens; assay: Binding affinity to internal ribosome entry site A RNA G-quadruplex region of VEGF-A protein in human MDA-MB-231 cells assessed as VEGF-A protein induced cell migration at 3 uM after 24 hrs by MTT dye based Transwell assay relative to control
[18] = test system: MCF7; assay: Antitumor activity against human MCF7 cells xenografted in nude Balb/c mouse assessed as tumor volume at 7.5 mg/kg, ip qd for 20 days (Rvb >700 mm3); format: functional

Activity [1]: inactive | Kd [3]: 1.29 µM | Activity [4]: inactive | Activity [5]: inactive | Activity [6]: Active | Activity [7]: Active | inhibition [8]: Active | inhibition [9]: Active | Kd [10]: 4.64 µM
SMILES: CCN(CC)CCOc1ccc(Nc2nc(-c3ccccc3NC(=O)CCN3CCN(C)CC3)nc3ccccc23)cc1
IC50 [2]: 12.5 µM | inhibition [11]: Active | Activity [12]: 65.5% | Activity [13]: inactive | Activity [14]: inactive | Activity [15]: 75% | Activity [16]: Active | Activity [17]: 25% | Activity [18]: <300 mm3

— ChEMBL document CHEMBL4014333, “Discovery of Small Molecules for Repressing Cap-Independent Translation of Human Vascular Endothelial Growth Factor (hVEGF) as Novel Antitumor Agents” (J Med Chem, 2017)
